From ChEMBL document CHEMBL1201862, “PubChem BioAssay data set” (2004)
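Results reflect a 48-hour exposure of cells in 96-well plates to compound at five concentrations. Here, GI50 denotes the concentration required for 50% inhibition of growth.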 The source made the active and inactive calls. Cut-off read from the data, not from the text of the source: active = GI50 up to about 1.1 µM and inactive = higher.

Columns and labels:
Experiment in all cases: NCI-60 cell line screen, 48 h
NCI-H522 = system: NCI-H522
DU-145 = system: DU-145
SF-268 = system: SF-268
SR = system: SR
M14 = system: M14
A498 = system: A498
OVCAR-5 = system: OVCAR-5
HOP-62 = system: HOP-62
Malme-3M = system: Malme-3M
U-251 = system: U-251
SW-620 = system: SW-620
MDA-MB-435 = system: MDA-MB-435
MDA-MB-231 = system: MDA-MB-231
SK-MEL-28 = system: SK-MEL-28
IGROV-1 = system: IGROV-1
ACHN = system: ACHN
NCI-H460 = system: NCI-H460
SN12C = system: SN12C
HCC 2998 = system: HCC 2998
K562 = system: K562
HL-60 = system: HL-60
UO-31 = system: UO-31
LOX IMVI = system: LOX IMVI
BT-549 = system: BT-549
RXF 393 = system: RXF 393
SK-MEL-2 = system: SK-MEL-2
PC-3 = system: PC-3
EKVX = system: EKVX
NCI-H23 = system: NCI-H23
A549 = system: A549
COLO 205 = system: COLO 205
KM12 = system: KM12
UACC-257 = system: UACC-257
MDA-N = system: MDA-N
Hs-578T = system: Hs-578T
TK-10 = system: TK-10
SNB-75 = system: SNB-75
NCI-H226 = system: NCI-H226
CCRF-CEM = system: CCRF-CEM
CAKI-1 = system: CAKI-1
SNB-19 = system: SNB-19
HOP-92 = system: HOP-92
HCT-15 = system: HCT-15
T47D = system: T47D
SF-539 = system: SF-539
RPMI-8226 = system: RPMI-8226
OVCAR-3 = system: OVCAR-3
OVCAR-8 = system: OVCAR-8
NCI/ADR-RES = system: NCI/ADR-RES
MCF7 = system: MCF7
SK-MEL-5 = system: SK-MEL-5
OVCAR-4 = system: OVCAR-4
MOLT-4 = system: MOLT-4
HT-29 = system: HT-29
786-0 = system: 786-0
UACC-62 = system: UACC-62
SF-295 = system: SF-295
HCT-116 = system: HCT-116

With O=c1cnn(C/C=C/CP(=O)(O)O)c(=O)[nH]1 the GI50 (NCI-H522) was > 100 µM (inactive), the GI50 (DU-145) was > 100 µM (inactive) and the GI50 (SF-268) was > 100 µM (inactive). The GI50 (SR) was > 100 µM (inactive), the GI50 (M14) was > 100 µM (inactive) and the GI50 (A498) was > 100 µM (inactive). The GI50 (OVCAR-5) was > 100 µM (inactive), the GI50 (HOP-62) was > 100 µM (inactive) and the GI50 (Malme-3M) was > 100 µM (inactive). The GI50 (U-251) was > 100 µM (inactive), the GI50 (SW-620) was > 100 µM (inactive) and the GI50 (MDA-MB-435) was > 100 µM (inactive). For the same molecule, the GI50 (MDA-MB-231) was > 100 µM (inactive), the GI50 (SK-MEL-28) was > 100 µM (inactive) and the GI50 (IGROV-1) was > 100 µM (inactive). The GI50 (ACHN) was 97.1 µM (inactive), the GI50 (NCI-H460) was > 100 µM (inactive) and the GI50 (SN12C) was > 100 µM (inactive). The GI50 (HCC 2998) was > 100 µM (inactive), the GI50 (K562) was > 100 µM (inactive) and the GI50 (HL-60) was > 100 µM (inactive). The GI50 (UO-31) was > 100 µM (inactive), the GI50 (LOX IMVI) was > 100 µM (inactive) and the GI50 (BT-549) was > 100 µM (inactive). For the same molecule, the GI50 (RXF 393) was > 100 µM (inactive), the GI50 (SK-MEL-2) was > 100 µM (inactive) and the GI50 (PC-3) was > 100 µM (inactive). For the same molecule, the GI50 (EKVX) was > 100 µM (inactive), the GI50 (NCI-H23) was > 100 µM (inactive) and the GI50 (A549) was > 100 µM (inactive). For the same molecule, the GI50 (COLO 205) was 80 µM (inactive), the GI50 (KM12) was > 100 µM (inactive) and the GI50 (UACC-257) was > 100 µM (inactive). The GI50 (MDA-N) was > 100 µM (inactive), the GI50 (Hs-578T) was > 100 µM (inactive) and the GI50 (TK-10) was > 100 µM (inactive). The GI50 (SNB-75) was > 100 µM (inactive), the GI50 (NCI-H226) was > 100 µM (inactive) and the GI50 (CCRF-CEM) was > 10 µM (inactive). The GI50 (CAKI-1) was > 100 µM (inactive), the GI50 (SNB-19) was > 100 µM (inactive) and the GI50 (HOP-92) was > 100 µM (inactive). The GI50 (HCT-15) was over 100 µM, the GI50 (T47D) was > 100 µM (inactive) and the GI50 (SF-539) was > 100 µM (inactive). The GI50 (RPMI-8226) was > 100 µM (inactive), the GI50 (OVCAR-3) was > 100 µM (inactive) and the GI50 (OVCAR-8) was > 100 µM (inactive). The GI50 (NCI/ADR-RES) was > 100 µM (inactive), the GI50 (MCF7) was > 100 µM (inactive) and the GI50 (SK-MEL-5) was > 100 µM (inactive).
In the case of O=c1oc2cc(/N=C/c3ccccc3Cl)ccc2c2ccccc12, the GI50 (NCI-H522) is reported as > 100 µM (inactive), the GI50 (DU-145) is reported as > 100 µM (inactive) and the GI50 (OVCAR-4) is reported as > 100 µM (inactive). For the same molecule, the GI50 (SF-268) was 87.1 µM (inactive), the GI50 (SR) was > 100 µM (inactive) and the GI50 (M14) was > 100 µM (inactive). For the same molecule, the GI50 (A498) was > 100 µM (inactive), the GI50 (OVCAR-5) was > 100 µM (inactive) and the GI50 (HOP-62) was > 100 µM (inactive). For the same molecule, the GI50 (Malme-3M) was > 100 µM (inactive), the GI50 (U-251) was > 100 µM (inactive) and the GI50 (MOLT-4) was > 100 µM (inactive). The GI50 (HT-29) was > 100 µM (inactive), the GI50 (SW-620) was > 100 µM (inactive) and the GI50 (MDA-MB-435) was > 100 µM (inactive). For the same molecule, the GI50 (MDA-MB-231) was > 100 µM (inactive), the GI50 (SK-MEL-28) was > 100 µM (inactive) and the GI50 (IGROV-1) was > 100 µM (inactive). The GI50 (786-0) was > 100 µM (inactive), the GI50 (UACC-62) was 40.7 µM (inactive) and the GI50 (ACHN) was > 100 µM (inactive). For the same molecule, the GI50 (NCI-H460) was > 100 µM (inactive), the GI50 (SN12C) was > 100 µM (inactive) and the GI50 (HCC 2998) was > 100 µM (inactive). For the same molecule, the GI50 (SF-295) was > 100 µM (inactive), the GI50 (K562) was 45.9 µM (inactive) and the GI50 (HL-60) was 57.1 µM (inactive). The GI50 (UO-31) was 40.1 µM (inactive), the GI50 (LOX IMVI) was 87.3 µM (inactive) and the GI50 (BT-549) was > 100 µM (inactive). For the same molecule, the GI50 (RXF 393) was > 100 µM (inactive), the GI50 (SK-MEL-2) was > 100 µM (inactive) and the GI50 (PC-3) was 98.6 µM (inactive). For the same molecule, the GI50 (EKVX) was 49.2 µM (inactive), the GI50 (NCI-H23) was > 100 µM (inactive) and the GI50 (A549) was > 100 µM (inactive). For the same molecule, the GI50 (COLO 205) was > 100 µM (inactive), the GI50 (KM12) was > 100 µM (inactive) and the GI50 (UACC-257) was > 100 µM (inactive). For the same molecule, the GI50 (MDA-N) was > 100 µM (inactive), the GI50 (Hs-578T) was > 100 µM (inactive) and the GI50 (HCT-116) was 71.3 µM (inactive). The GI50 (SNB-75) was > 100 µM (inactive), the GI50 (NCI-H226) was > 100 µM (inactive) and the GI50 (CCRF-CEM) was > 100 µM (inactive). The GI50 (CAKI-1) was > 100 µM (inactive), the GI50 (SNB-19) was 97.5 µM (inactive) and the GI50 (HOP-92) was > 100 µM (inactive). For the same molecule, the GI50 (HCT-15) was over 100 µM, the GI50 (T47D) was > 100 µM (inactive) and the GI50 (SF-539) was > 100 µM (inactive). The GI50 (RPMI-8226) was > 100 µM (inactive), the GI50 (OVCAR-3) was > 100 µM (inactive) and the GI50 (OVCAR-8) was > 100 µM (inactive). For the same molecule, the GI50 (NCI/ADR-RES) was > 100 µM (inactive), the GI50 (MCF7) was 14.2 µM (inactive) and the GI50 (SK-MEL-5) was > 100 µM (inactive).
